Test results published in ChEMBL document CHEMBL3045658, “Design, synthesis, antiviral activity, and SARs of 14-aminophenanthroindolizidines” (2012).

Legend:
Type in all cases: functional
Tobacco mosaic virus [1] = assay: In vivo antiviral activity against Tobacco mosaic virus (TMV) inoculated right side of Nicotiana. tabacum L. leaves assessed as protection effect at 500 ug/mL preincubated 12 hr before viral challenge measured after 3 to 4 days
Tobacco mosaic virus [2] = assay: Antiviral activity against Tobacco mosaic virus (TMV) inoculated in 5-6 growth stage leaf assessed as inhibition effect at 500 ug/mL at 25 degC after 72 hr by half-leaf method
Tobacco mosaic virus [3] = assay: In vivo antiviral activity against Tobacco mosaic virus (TMV) pre-inoculated Nicotiana. tabacum L. leaves assessed as curative effect at 500 ug/mL measured after 3 to 4 days
Tobacco mosaic virus [4] = assay: In vivo antiviral activity against Tobacco mosaic virus (TMV) inoculated left side of Nicotiana. tabacum L. leaves assessed as inactivation effect at 100 ug/mL co-incubated with virus measured after 3 to 4 days
Tobacco mosaic virus [5] = assay: In vivo antiviral activity against Tobacco mosaic virus (TMV) inoculated right side of Nicotiana. tabacum L. leaves assessed as protection effect at 100 ug/mL preincubated 12 hr before viral challenge measured after 3 to 4 days
Tobacco mosaic virus [6] = assay: In vivo antiviral activity against Tobacco mosaic virus (TMV) inoculated left side of Nicotiana. tabacum L. leaves assessed as inactivation effect at 500 ug/mL co-incubated with virus measured after 3 to 4 days
Tobacco mosaic virus [7] = assay: Antiviral activity against Tobacco mosaic virus (TMV) inoculated in 5-6 growth stage leaf assessed as inhibition effect at 100 ug/mL at 25 degC after 72 hr by half-leaf method
Tobacco mosaic virus [8] = assay: In vivo antiviral activity against Tobacco mosaic virus (TMV) pre-inoculated Nicotiana. tabacum L. leaves assessed as curative effect at 100 ug/mL measured after 3 to 4 days
Tobacco mosaic virus [9] = assay: Antiviral activity against Tobacco mosaic virus (TMV) assessed as inhibition effect at 500 ug/mL
Tobacco mosaic virus [10] = assay: Antiviral activity against Tobacco mosaic virus (TMV) assessed as inhibition effect at 1 ug/mL

Row | Structure (SMILES) | inhibition in vivo at 500 µg/mL (Tobacco mosaic virus [1]) | inhibition at 500 µg/mL (Tobacco mosaic virus [2]) | inhibition in vivo at 500 µg/mL (Tobacco mosaic virus [3]) | inhibition in vivo at 100 µg/mL (Tobacco mosaic virus [4]) | inhibition in vivo at 100 µg/mL (Tobacco mosaic virus [5]) | inhibition in vivo at 500 µg/mL (Tobacco mosaic virus [6]) | inhibition at 100 µg/mL (Tobacco mosaic virus [7]) | inhibition in vivo at 100 µg/mL (Tobacco mosaic virus [8]) | inhibition at 500 µg/mL (Tobacco mosaic virus [9]) | inhibition at 1 µg/mL (Tobacco mosaic virus [10])
1 | COc1ccc2c3c(c4cc(OC)c(OC)cc4c2c1)CN1CCC[C@H]1[C@H]3NC(C)=O | 28.6% | 23.5% | 25.2% | 16.7% | 15.3% | 38.1% | 7.4% | 0% | – | –
2 | COc1ccc2c3c(c4cc(OC)c(OC)cc4c2c1)[C@H](NC(=O)C(C)(C)C)[C@@H]1CCCN1C3 | 52.6% | 48.3% | 45.6% | 23.6% | 24.7% | 37.2% | 28.7% | 31.4% | – | –
3 | COc1cc2c3c(c4cc(OC)c(OC)cc4c2cc1OC)CN1CCCC1C3 (racemic) [(+/-)-TYLOPHORINE] | 56.6% | 51.8% | 52% | 33.3% | 31.5% | 46.5% | 27.6% | 30.7% | – | –
4 | O=C1NCNC(=O)N1 | – | – | – | – | – | – | – | – | 50% | –
5 | COc1cc2c3c(c4ccc(O)cc4c2cc1OC)CN1CCC[C@@H]1C3 | – | – | – | – | – | – | – | – | – | 70%
6 | CCCCN[C@H]1c2c(c3cc(OC)c(OC)cc3c3cc(OC)ccc23)CN2C(=O)CC[C@@H]12 | 50.3% | 52.5% | 47.5% | 25.6% | 26.2% | 47.2% | 30% | 20.3% | – | –
7 | COc1ccc2c3c(c4cc(OC)c(OC)cc4c2c1)[C@H](N)[C@@H]1CCCN1C3 | 44.4% | 48.2% | 42.3% | 32.1% | 30.1% | 41.9% | 32.5% | 29.6% | – | –
8 | CCCCN[C@@H]1c2c(c3cc(OC)c(OC)cc3c3cc(OC)ccc23)CN2CCC[C@@H]12 | 69.5% | 72.3% | 66.6% | 32.6% | 36.8% | 64.2% | 41.2% | 30.4% | – | –
9 | CCCCN[C@H]1c2c(c3cc(OC)c(OC)cc3c3cc(OC)ccc23)CN2C(=O)CC[C@H]12 | 46.8% | 44.1% | 36.2% | 19.8% | 17.6% | 43.3% | 20.4% | 14.3% | – | –
10 | COc1ccc2c3c(c4cc(OC)c(OC)cc4c2c1)[C@H](NC(C)=O)[C@@H]1CCCN1C3 | 72.7% | 75.1% | 69.6% | 40.4% | 55.3% | 72.2% | 55% | 50.8% | – | –
11 | CCCCN[C@H]1c2c(c3cc(OC)c(OC)cc3c3cc(OC)ccc23)CN2CCC[C@@H]12 | 65.5% | 62.3% | 60.2% | 30% | 34.9% | 58.9% | 28.4% | 25.9% | – | –
12 | NC(=O)c1ncn([C@@H]2O[C@H](CO)[C@@H](O)[C@H]2O)n1 [RIBAVIRIN] | 38.9% | 41% | 36.7% | 9.8% | 7.5% | 33.8% | 19.6% | 8.2% | – | –
13 | COc1cc2c3c(c4cc(OC)c(OC)cc4c2cc1OC)[C@H](N)[C@@H]1CCCN1C3 | 18.4% | 12.9% | 15.5% | 11.2% | 7.3% | 17.6% | 0% | 0% | – | –
14 | COc1ccc2c3c(c4cc(OC)c(OC)cc4c2c1)CN1CCC[C@H]1[C@H]3N | 71.6% | 72.4% | 68% | 32.8% | 38.9% | 70.3% | 45% | 48.2% | – | –
15 | COc1cc2c3c(c4cc(OC)c(OC)cc4c2cc1OC)[C@H](NC(C)=O)[C@@H]1CCCN1C3 | 41.5% | 34.7% | 37.4% | 31.1% | 29.3% | 46.4% | 21.1% | 25.3% | – | –
16 | COc1cc2c3c(c4cc(OC)c(OC)cc4c2cc1OC)[C@H](NC(=O)C(C)(C)C)[C@@H]1CCCN1C3 | 38.9% | 42.4% | 38.5% | 16.9% | 22% | 28.5% | 23.1% | 26.3% | – | –
17 | CNCC(=O)N[C@@H](CO)C(=O)N[C@H]1[C@H](O)[C@@H](O)[C@H](n2ccc(N)nc2=O)O[C@@H]1C(N)=O [NINGNANMYCIN] | 66.6% | 70.2% | 56% | 37.7% | 25.2% | 68.5% | 23.9% | 18.9% | – | –
18 | CCCCN[C@@H]1c2c(c3cc(OC)c(OC)cc3c3cc(OC)ccc23)CN2C(=O)CC[C@H]12 | 48.2% | 38.2% | 41.7% | 25.4% | 20.5% | 49.4% | 17.5% | 23.6% | – | –
19 | COc1ccc2c3c(c4cc(OC)c(OC)cc4c2c1)C[C@H]1CCCN1C3 [(-)-ANTOFINE] | – | – | – | – | – | – | – | – | – | 63%
20 | CC(=O)N1CN(C(C)=O)C(=O)NC1=O | – | – | – | – | – | – | – | – | 50% | –
21 | CCCCN[C@@H]1c2c(c3cc(OC)c(OC)cc3c3cc(OC)ccc23)CN2C(=O)CC[C@@H]12 | 54.8% | 45.7% | 52.5% | 27.6% | 28.6% | 50% | 20% | 24.3% | – | –
22 | COc1ccc2c3c(c4cc(OC)c(OC)cc4c2c1)CN1CCC[C@H]1[C@H]3NC(=O)C(C)(C)C | 43.1% | 49.1% | 45% | 15.4% | 23.6% | 31.9% | 30% | 27.7% | – | –
23 | CCCCN[C@@H]1c2c(c3cc(OC)c(OC)cc3c3cc(OC)ccc23)CN2CCC[C@H]12 | 57.6% | 47.6% | 58.2% | 23.7% | 27.4% | 53.5% | 24.3% | 20.5% | – | –
24 | CCCCN[C@H]1c2c(c3cc(OC)c(OC)cc3c3cc(OC)ccc23)CN2CCC[C@H]12 | 54.2% | 51.4% | 50.2% | 15.2% | 20% | 42.3% | 19.9% | 16.7% | – | –
